Among the data in patent publication US5621002A, “Prodrugs for enzyme mediated activation” (Behringwerke Aktiengesellschaft, priority 1993, dated 1997) are Km and Vmax values, retold here.

In data set [1] the target is T1, antibody-β-glucuronidase fusion protein (Homo sapiens, UniProt P08236).
T1 construct: antibody part only targets
T1 sequence (P08236 23-651): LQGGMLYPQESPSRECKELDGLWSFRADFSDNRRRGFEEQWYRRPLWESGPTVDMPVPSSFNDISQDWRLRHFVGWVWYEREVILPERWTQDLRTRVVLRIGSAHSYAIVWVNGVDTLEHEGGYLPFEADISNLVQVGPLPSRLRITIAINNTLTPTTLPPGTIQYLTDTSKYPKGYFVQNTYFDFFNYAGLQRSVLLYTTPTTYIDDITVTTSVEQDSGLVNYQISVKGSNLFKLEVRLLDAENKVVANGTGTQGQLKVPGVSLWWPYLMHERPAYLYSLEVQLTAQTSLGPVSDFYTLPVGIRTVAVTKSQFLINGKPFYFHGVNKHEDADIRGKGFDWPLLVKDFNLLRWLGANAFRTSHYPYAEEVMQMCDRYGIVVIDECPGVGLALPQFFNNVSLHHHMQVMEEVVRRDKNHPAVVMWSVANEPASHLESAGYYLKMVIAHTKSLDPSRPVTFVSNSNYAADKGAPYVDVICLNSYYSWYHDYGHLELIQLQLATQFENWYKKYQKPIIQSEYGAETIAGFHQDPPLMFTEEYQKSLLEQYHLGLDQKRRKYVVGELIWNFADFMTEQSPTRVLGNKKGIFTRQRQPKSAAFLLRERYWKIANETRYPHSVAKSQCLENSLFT
Nature of the data set: Km and Vmax determination, enzymatic cleavage by fusion protein monitored by HPLC. The format is biochemical. The conditions noted are these: 100 mM phosphate buffer + 1 mg/ml BSA, pH 7.2, 37° C., substrate 10-10000 μM. Here is the method: (§1) Comparison of Km- and V max-values of natural and improved substrate for antibody β-glucuronidase fusion protein
(§2) For Km- and Vmax-determination 3'-N-[4-(beta-D-Glucuronyloxy)-3-nitro-benzyloxycarbonyl]-doxorubicin and prodrug A should be diluted in the range of 10-10000 μM in 100 mM phosphate buffer+1 mg/ml BSA, pH 7.2. Enzymatic cleavage should be done with constant amounts of fusion protein at 37° C. Cleavage can be monitored by HPLC analysis. Km- and Vmax-values can be calculated with the software program GraFit 2.0 (Erithacus Software Ltd.).
(§3) The HPLC apparatus consisted of an autosampler (Abimed, model 231), an automatic sample extraction system (AASP, Varian) equipped with minicartridges containing C 18 reversed phase silica gel (Analytichem), a gradient pump (Gynkotek, model 480), a fluorescence detector (Shimazdu RF 535, Excitation: 495 nm, Emission: 560 nm). Before sample injection the minicartridges were preconditioned with 2.5 ml methanol and 1.5 ml phosphate buffer, pH 6. Analytes retained on the reversed phase silica gel were then eluted by valve switching and connection of the minicartridges to the mobile phase. Chromatography was performed on reversed phase material (Nucleosil C 18, 5 μm particle size, 120 mm length, 4,5 mm I.D.) and gradient elution. Elution was done by a gradient composed of 2 components (A: 20 mM phosphate, pH 3, B: acetonitrile). […]

Substrate in data set [2]: [H][C@]1(O[C@H]2C[C@H](NC(=O)OCc3ccc(O[C@@H]4O[C@H](C(=O)O)[C@@H](O)[C@H](O)[C@H]4O)c([N+](=O)[O-])c3)[C@H](O)[C@H](C)O2)C[C@](O)(C(=O)CO)Cc2c(O)c3c(c(O)c21)C(=O)c1c(OC)cccc1C3=O
Described as above. The conditions noted are these: other: 100 mM phosphate buffer + 1 mg/ml BSA, pH 7.2, 37° C., substrate 10-10000 μM. It is filed as biochemical, human. Here is the method: as §1, §2, §3

Broadly, the Km is the substrate concentration at which the rate is half of its maximum. With `COc1cccc2c1C(=O)c1c(O)c3c(c(O)c1C2=O)C[C@@](O)(C(=O)CO)C[C@@H]3O[C@H]1C[C@H](NC(=O)OCc2ccc(O[C@@H]3O[C@H]([C@H](O)C(=O)O)[C@H](O)[C@H]3O)c([N+](=O)[O-])c2)[C@H](O)[C@H](C)O1` [Prodrug A], in data set [1], the Km is less than 500 µM and the Vmax was ~ 0.635 nmol/μg/min.

B1: antibody-β-glucuronidase fusion protein (Homo sapiens) (protein)
chain: T1 sequence (P08236 23-651)
notes: antibody part only targets
For B1, in data set [2], the Km came to 1300 µM and the Vmax stood at 0.635 nmol/µg/min.
